What was measured:
Assay in all cases: PDSP off-target binding screen
Conditions in all cases: for inhibition at 10 µM: read-out: Primary screen AVE(%inhib)±SD; for Ki: read-out: Secondary screen Ki
Beta2 = Beta2 (Homo sapiens, UniProt P07550)
Source text: (§1) PDSP no. Compound Interactions (Ki, µM)
(§2) 60477 Allopole-A None observed.
(§3) trigger a secondary screen at that receptor.

5-HT7A = 5-HT7A (Homo sapiens, UniProt P34969)
Source text: as §1, §2, §3

DOR = DOR (Homo sapiens, UniProt P41143)
Source text: as §1, §2, §3

M5 = molecular target: T1, M5 (Homo sapiens, UniProt P08912)
T1 sequence (P08912 1-532): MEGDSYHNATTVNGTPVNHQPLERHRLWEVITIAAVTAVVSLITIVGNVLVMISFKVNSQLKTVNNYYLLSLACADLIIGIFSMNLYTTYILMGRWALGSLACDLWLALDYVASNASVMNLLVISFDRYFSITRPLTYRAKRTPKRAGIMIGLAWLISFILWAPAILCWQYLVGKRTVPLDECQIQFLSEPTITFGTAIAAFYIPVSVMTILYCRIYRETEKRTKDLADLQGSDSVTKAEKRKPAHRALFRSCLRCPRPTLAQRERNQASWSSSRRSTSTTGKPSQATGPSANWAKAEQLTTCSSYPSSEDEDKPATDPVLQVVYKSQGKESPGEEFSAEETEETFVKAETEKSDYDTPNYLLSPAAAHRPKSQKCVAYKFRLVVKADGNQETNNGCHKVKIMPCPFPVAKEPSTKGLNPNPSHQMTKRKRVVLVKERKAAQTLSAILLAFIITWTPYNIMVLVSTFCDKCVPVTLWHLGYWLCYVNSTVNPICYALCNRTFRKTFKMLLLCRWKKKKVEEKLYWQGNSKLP
Source text: as §1, §2, §3

Sigma 1 = Sigma 1 (Homo sapiens, UniProt Q99720)
Source text: as §1, §2, §3

M4 = molecular target: T2, M4 (Homo sapiens, UniProt P08173)
T2 sequence (P08173 1-479): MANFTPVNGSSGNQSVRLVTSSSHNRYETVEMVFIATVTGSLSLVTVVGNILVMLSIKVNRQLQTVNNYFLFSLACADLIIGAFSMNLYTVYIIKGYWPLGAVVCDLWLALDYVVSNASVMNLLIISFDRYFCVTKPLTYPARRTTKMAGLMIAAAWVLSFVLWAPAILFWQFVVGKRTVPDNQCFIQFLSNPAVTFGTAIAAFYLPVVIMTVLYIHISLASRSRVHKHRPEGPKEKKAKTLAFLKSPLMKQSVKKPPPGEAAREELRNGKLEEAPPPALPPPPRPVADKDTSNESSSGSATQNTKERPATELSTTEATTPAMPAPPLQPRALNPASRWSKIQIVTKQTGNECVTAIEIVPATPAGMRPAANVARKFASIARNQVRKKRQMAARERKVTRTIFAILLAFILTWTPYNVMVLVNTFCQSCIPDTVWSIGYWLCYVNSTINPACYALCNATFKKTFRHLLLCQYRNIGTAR
Source text: as §1, §2, §3

5-HT1A = molecular target: T3, 5-HT1A (Homo sapiens, UniProt P08908)
T3 construct: NIMH Psychoactive Drug Screening Program (UNC)
T3 sequence (P08908 1-422): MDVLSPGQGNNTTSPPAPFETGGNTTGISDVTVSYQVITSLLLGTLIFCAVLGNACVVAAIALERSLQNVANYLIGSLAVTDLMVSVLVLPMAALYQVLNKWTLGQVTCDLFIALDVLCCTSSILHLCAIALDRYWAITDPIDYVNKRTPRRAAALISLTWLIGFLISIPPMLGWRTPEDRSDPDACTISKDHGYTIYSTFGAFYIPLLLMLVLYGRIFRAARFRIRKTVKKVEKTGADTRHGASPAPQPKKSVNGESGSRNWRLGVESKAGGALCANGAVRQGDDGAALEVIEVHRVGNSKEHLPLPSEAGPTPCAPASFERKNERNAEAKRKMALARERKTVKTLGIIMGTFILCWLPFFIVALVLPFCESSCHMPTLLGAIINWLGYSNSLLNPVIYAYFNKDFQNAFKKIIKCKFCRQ
Source text: as §1, §2, §3

5-HT6 = molecular target: T4, 5-HT6 (Homo sapiens, UniProt P50406)
T4 construct: NIMH Psychoactive Drug Screening Program (UNC)
Source text: as §1, §2, §3

Alpha1A = molecular target: T5, Alpha1A (Homo sapiens, UniProt P35348)
T5 sequence (P35348 1-466): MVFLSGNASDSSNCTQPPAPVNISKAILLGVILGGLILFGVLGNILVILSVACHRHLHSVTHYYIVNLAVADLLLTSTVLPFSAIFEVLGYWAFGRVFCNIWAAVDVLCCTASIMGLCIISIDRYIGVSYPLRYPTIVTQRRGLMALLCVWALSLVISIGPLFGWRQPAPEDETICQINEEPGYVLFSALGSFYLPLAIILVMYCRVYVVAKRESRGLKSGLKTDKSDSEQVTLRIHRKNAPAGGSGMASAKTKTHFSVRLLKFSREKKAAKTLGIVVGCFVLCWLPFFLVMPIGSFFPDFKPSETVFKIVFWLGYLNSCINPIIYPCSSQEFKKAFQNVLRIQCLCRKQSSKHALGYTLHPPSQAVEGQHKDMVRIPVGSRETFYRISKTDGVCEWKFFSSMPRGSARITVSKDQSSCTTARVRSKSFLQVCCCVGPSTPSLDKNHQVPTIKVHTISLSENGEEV
Source text: as §1, §2, §3

Alpha2A = molecular target: T6, Alpha2A (Homo sapiens, UniProt P08913)
T6 sequence (P08913 1-465): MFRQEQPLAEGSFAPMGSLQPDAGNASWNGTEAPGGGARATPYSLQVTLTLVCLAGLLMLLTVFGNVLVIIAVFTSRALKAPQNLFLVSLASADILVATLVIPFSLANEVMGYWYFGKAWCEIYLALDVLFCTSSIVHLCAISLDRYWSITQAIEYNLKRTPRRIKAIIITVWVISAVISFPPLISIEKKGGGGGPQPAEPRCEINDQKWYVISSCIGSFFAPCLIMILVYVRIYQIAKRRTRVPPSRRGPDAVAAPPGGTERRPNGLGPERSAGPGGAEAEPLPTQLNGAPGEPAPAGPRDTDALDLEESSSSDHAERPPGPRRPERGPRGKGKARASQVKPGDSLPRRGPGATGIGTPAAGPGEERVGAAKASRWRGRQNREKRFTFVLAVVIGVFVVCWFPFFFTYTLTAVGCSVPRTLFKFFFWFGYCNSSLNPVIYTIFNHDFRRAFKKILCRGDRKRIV
Source text: as §1, §2, §3

Sequence of Sigma 1 (Q99720 whole entry): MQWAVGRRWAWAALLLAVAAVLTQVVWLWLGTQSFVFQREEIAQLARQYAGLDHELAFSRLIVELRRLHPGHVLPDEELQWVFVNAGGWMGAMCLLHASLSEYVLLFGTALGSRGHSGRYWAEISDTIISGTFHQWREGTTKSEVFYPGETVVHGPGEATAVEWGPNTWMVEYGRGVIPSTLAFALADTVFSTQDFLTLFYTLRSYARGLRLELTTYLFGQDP
T4 sequence (P50406 whole entry): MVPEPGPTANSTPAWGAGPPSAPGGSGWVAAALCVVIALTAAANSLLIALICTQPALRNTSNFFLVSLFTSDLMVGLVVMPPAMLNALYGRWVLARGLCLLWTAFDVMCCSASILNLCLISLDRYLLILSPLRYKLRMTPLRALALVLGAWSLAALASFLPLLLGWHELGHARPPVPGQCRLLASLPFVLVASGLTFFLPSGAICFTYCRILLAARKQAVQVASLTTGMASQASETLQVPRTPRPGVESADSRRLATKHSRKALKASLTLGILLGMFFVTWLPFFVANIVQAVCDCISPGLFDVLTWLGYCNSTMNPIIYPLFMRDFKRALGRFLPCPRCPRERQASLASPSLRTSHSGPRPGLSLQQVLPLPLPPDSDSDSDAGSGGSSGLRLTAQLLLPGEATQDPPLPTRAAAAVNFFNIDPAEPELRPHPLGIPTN
Sequence of DOR (P41143 whole entry): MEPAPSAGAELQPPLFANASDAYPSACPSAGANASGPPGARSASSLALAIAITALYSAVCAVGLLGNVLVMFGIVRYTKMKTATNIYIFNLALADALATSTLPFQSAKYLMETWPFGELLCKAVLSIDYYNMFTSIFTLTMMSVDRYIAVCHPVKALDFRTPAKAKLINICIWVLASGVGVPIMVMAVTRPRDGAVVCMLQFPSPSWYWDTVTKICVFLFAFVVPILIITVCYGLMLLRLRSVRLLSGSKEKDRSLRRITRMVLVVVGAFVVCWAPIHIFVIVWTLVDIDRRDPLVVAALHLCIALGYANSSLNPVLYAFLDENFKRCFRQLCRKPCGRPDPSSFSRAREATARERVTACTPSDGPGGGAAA
Sequence of 5-HT7A (P34969 1-445 isoform P34969-2): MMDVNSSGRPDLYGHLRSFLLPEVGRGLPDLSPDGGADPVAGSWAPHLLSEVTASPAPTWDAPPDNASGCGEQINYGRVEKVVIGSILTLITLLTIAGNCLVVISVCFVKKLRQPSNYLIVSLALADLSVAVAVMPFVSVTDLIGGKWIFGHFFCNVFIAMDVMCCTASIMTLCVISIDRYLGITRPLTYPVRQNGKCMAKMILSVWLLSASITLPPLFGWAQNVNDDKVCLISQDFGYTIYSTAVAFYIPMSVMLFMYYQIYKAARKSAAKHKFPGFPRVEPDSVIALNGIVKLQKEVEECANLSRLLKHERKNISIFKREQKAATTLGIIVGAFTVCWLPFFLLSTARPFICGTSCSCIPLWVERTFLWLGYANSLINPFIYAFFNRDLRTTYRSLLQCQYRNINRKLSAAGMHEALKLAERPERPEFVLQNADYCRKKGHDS
Sequence of Beta2 (P07550 whole entry): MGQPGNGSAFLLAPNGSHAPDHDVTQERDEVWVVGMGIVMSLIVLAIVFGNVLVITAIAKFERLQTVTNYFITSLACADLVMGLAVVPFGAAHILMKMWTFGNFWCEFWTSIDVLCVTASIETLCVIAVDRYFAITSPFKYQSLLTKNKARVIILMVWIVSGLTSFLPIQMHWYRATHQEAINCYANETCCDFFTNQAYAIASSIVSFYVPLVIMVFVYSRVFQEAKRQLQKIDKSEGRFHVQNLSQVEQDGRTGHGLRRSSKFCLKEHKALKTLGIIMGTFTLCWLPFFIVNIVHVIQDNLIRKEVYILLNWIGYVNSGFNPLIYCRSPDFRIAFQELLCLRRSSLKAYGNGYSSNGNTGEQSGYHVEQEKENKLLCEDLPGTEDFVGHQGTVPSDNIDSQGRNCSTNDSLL

O=c1c2sc(Cl)cc2n2c(=S)[nH]nc2n1CC1CC1 [Allopole-A]
inhibition at 10 µM (Beta2): -2.1 ± 19.7%
Ki (Beta2): > 10 µM
inhibition at 10 µM (5-HT7A): -88.1 ± 20.8%
Ki (5-HT7A): > 10 µM
inhibition at 10 µM (DOR): -13.5 ± 6.8%
Ki (DOR): > 10 µM
inhibition at 10 µM (M5): 130 ± 3%
Ki (M5): > 10 µM
inhibition at 10 µM (Sigma 1): 2 ± 21.4%
Ki (Sigma 1): > 10 µM
inhibition at 10 µM (M4): -8.8 ± 4.8%
Ki (M4): > 10 µM
inhibition at 10 µM (5-HT1A): -20 ± 27.4%
Ki (5-HT1A): > 10 µM
inhibition at 10 µM (5-HT6): -5 ± 11.7%
Ki (5-HT6): > 10 µM
inhibition at 10 µM (Alpha1A): -9.4 ± 18%
Ki (Alpha1A): > 10 µM
inhibition at 10 µM (Alpha2A): -6.3 ± 7.9%
Ki (Alpha2A): > 10 µM

Cn1cnc([N+](=O)[O-])c1Sc1nnc2n(CC3CC3)c(=O)c3sc(Cl)cc3n12 [Allopole]
inhibition at 10 µM (Beta2): 0.1 ± 10.6%
Ki (Beta2): > 10 µM
inhibition at 10 µM (5-HT7A): 14.9 ± 9.9%
Ki (5-HT7A): > 10 µM
inhibition at 10 µM (DOR): -1 ± 4.8%
Ki (DOR): > 10 µM
inhibition at 10 µM (M5): 95 ± 7.4%
Ki (M5): > 10 µM
inhibition at 10 µM (Sigma 1): 41.8 ± 11.9%
Ki (Sigma 1): > 10 µM
inhibition at 10 µM (M4): -8.7 ± 9.5%
Ki (M4): > 10 µM
inhibition at 10 µM (5-HT1A): -12.8 ± 19.7%
Ki (5-HT1A): > 10 µM
inhibition at 10 µM (5-HT6): 21.9 ± 15.6%
Ki (5-HT6): > 10 µM
inhibition at 10 µM (Alpha1A): 40.6 ± 10.5%
Ki (Alpha1A): > 10 µM
inhibition at 10 µM (Alpha2A): 9.4 ± 4.6%
Ki (Alpha2A): > 10 µM

— PMC10629583, “Specific inhibition of an anticancer target, polo-like kinase 1, by allosterically dismantling its mechanism of substrate recognition” (Proceedings of the National Academy of Sciences of the …, 2023)
